# From the CheMixHub viscosity set
# ± gives the uncertainty stated by the source.
# Assay: xn = mol fraction of the nth substance listed
# [1] = 303.15 K, 101.33 kPa, x1 = 0.4015
smiles,measurement,setting,value
CCCCC(CC)COP(=O)(OCC(CC)CCCC)OCC(CC)CCCC (stereo not given) + CCCCCCCC,viscosity,"298.15 K, 101 kPa, x1 = 0.098",0.83 ± 0.007 mPa·s
same,viscosity,"298.15 K, 101 kPa, x1 = 0.1989",1.287 ± 0.01 mPa·s
same,viscosity,"298.15 K, 101 kPa, x1 = 0.2979",1.852 ± 0.014 mPa·s
same,viscosity,"298.15 K, 101 kPa, x1 = 0.381",2.52 ± 0.019 mPa·s
same,viscosity,"298.15 K, 101 kPa, x1 = 0.489",3.555 ± 0.027 mPa·s
same,viscosity,"298.15 K, 101 kPa, x1 = 0.5902",4.707 ± 0.035 mPa·s
same,viscosity,"298.15 K, 101 kPa, x1 = 0.693",6.118 ± 0.044 mPa·s
same,viscosity,"298.15 K, 101 kPa, x1 = 0.7952",7.688 ± 0.054 mPa·s
same,viscosity,"298.15 K, 101 kPa, x1 = 0.9044",9.668 ± 0.067 mPa·s
same,viscosity,"303.15 K, 101 kPa, x1 = 0.098",0.773 ± 0.006 mPa·s
same,viscosity,"303.15 K, 101 kPa, x1 = 0.1989",1.183 ± 0.009 mPa·s
same,viscosity,"303.15 K, 101 kPa, x1 = 0.2979",1.674 ± 0.013 mPa·s
same,viscosity,"303.15 K, 101 kPa, x1 = 0.381",2.264 ± 0.017 mPa·s
same,viscosity,"303.15 K, 101 kPa, x1 = 0.489",3.136 ± 0.024 mPa·s
same,viscosity,"303.15 K, 101 kPa, x1 = 0.5902",4.108 ± 0.031 mPa·s
same,viscosity,"303.15 K, 101 kPa, x1 = 0.693",5.242 ± 0.039 mPa·s
same,viscosity,"303.15 K, 101 kPa, x1 = 0.7952",6.565 ± 0.047 mPa·s
same,viscosity,"303.15 K, 101 kPa, x1 = 0.9044",8.204 ± 0.057 mPa·s
same,viscosity,"308.15 K, 101 kPa, x1 = 0.098",0.722 ± 0.006 mPa·s
same,viscosity,"308.15 K, 101 kPa, x1 = 0.1989",1.074 ± 0.009 mPa·s
same,viscosity,"308.15 K, 101 kPa, x1 = 0.2979",1.498 ± 0.012 mPa·s
same,viscosity,"308.15 K, 101 kPa, x1 = 0.381",2.016 ± 0.016 mPa·s
same,viscosity,"308.15 K, 101 kPa, x1 = 0.489",2.759 ± 0.021 mPa·s
same,viscosity,"308.15 K, 101 kPa, x1 = 0.5902",3.592 ± 0.027 mPa·s
same,viscosity,"308.15 K, 101 kPa, x1 = 0.693",4.585 ± 0.034 mPa·s
same,viscosity,"308.15 K, 101 kPa, x1 = 0.7952",5.632 ± 0.041 mPa·s
same,viscosity,"308.15 K, 101 kPa, x1 = 0.9044",6.964 ± 0.049 mPa·s
CCCCN + CCCCCCCC,viscosity,"303.15 K, 101.33 kPa, x1 = 0.1275",0.462 ± 0.012 mPa·s
same,viscosity,"303.15 K, 101.33 kPa, x1 = 0.2962",0.441 ± 0.012 mPa·s
same,viscosity,[1],0.433 ± 0.011 mPa·s
same,viscosity,"303.15 K, 101.33 kPa, x1 = 0.5214",0.428 ± 0.011 mPa·s
same,viscosity,"303.15 K, 101.33 kPa, x1 = 0.6438",0.42 ± 0.011 mPa·s
same,viscosity,"303.15 K, 101.33 kPa, x1 = 0.7573",0.434 ± 0.011 mPa·s
same,viscosity,"303.15 K, 101.33 kPa, x1 = 0.9231",0.478 ± 0.013 mPa·s
CCC(C)(C)C + CCCCCCCCCCCC,viscosity,"298 K, 101.33 kPa, x1 = 0.0995",1.264 ± 0.017 mPa·s
same,viscosity,"298 K, 101.33 kPa, x1 = 0.2015",1.152 ± 0.015 mPa·s
same,viscosity,"298 K, 101.33 kPa, x1 = 0.2997",1.056 ± 0.014 mPa·s
same,viscosity,"298 K, 101.33 kPa, x1 = 0.3975",0.944 ± 0.013 mPa·s
same,viscosity,"298 K, 101.33 kPa, x1 = 0.5013",0.8256 ± 0.011 mPa·s
same,viscosity,"298 K, 101.33 kPa, x1 = 0.6011",0.7202 ± 0.01 mPa·s
same,viscosity,"298 K, 101.33 kPa, x1 = 0.7",0.6152 ± 0.0088 mPa·s
same,viscosity,"298 K, 101.33 kPa, x1 = 0.7997",0.5206 ± 0.0077 mPa·s
same,viscosity,"298 K, 101.33 kPa, x1 = 0.9002",0.4256 ± 0.0066 mPa·s
CCC(C)(C)C + CCCCCCCCCCCCCCCC,viscosity,"298 K, 101.33 kPa, x1 = 0.1107",2.735 ± 0.034 mPa·s
same,viscosity,"298 K, 101.33 kPa, x1 = 0.2098",2.405 ± 0.03 mPa·s
same,viscosity,"298 K, 101.33 kPa, x1 = 0.3108",2.071 ± 0.026 mPa·s
same,viscosity,"298 K, 101.33 kPa, x1 = 0.4014",1.788 ± 0.023 mPa·s
same,viscosity,"298 K, 101.33 kPa, x1 = 0.5013",1.486 ± 0.019 mPa·s
same,viscosity,"298 K, 101.33 kPa, x1 = 0.6057",1.211 ± 0.016 mPa·s
same,viscosity,"298 K, 101.33 kPa, x1 = 0.7048",0.9511 ± 0.013 mPa·s
same,viscosity,"298 K, 101.33 kPa, x1 = 0.8022",0.711 ± 0.01 mPa·s
same,viscosity,"298 K, 101.33 kPa, x1 = 0.9014",0.5046 ± 0.0075 mPa·s
CCCCN + CCCCCCCCCCO,viscosity,"303.15 K, 101.33 kPa, x1 = 0.1009",7.619 ± 0.051 mPa·s
same,viscosity,"303.15 K, 101.33 kPa, x1 = 0.1875",6.568 ± 0.045 mPa·s
same,viscosity,"303.15 K, 101.33 kPa, x1 = 0.2926",5.323 ± 0.038 mPa·s
same,viscosity,"303.15 K, 101.33 kPa, x1 = 0.4082",4.051 ± 0.029 mPa·s
same,viscosity,"303.15 K, 101.33 kPa, x1 = 0.4885",3.232 ± 0.024 mPa·s
same,viscosity,"303.15 K, 101.33 kPa, x1 = 0.5888",2.336 ± 0.017 mPa·s
same,viscosity,"303.15 K, 101.33 kPa, x1 = 0.7198",1.398 ± 0.011 mPa·s
same,viscosity,"303.15 K, 101.33 kPa, x1 = 0.8119",0.9303 ± 0.0075 mPa·s
same,viscosity,"303.15 K, 101.33 kPa, x1 = 0.9029",0.6273 ± 0.0054 mPa·s
same,viscosity,"313.15 K, 101.33 kPa, x1 = 0.1009",5.926 ± 0.042 mPa·s
same,viscosity,"313.15 K, 101.33 kPa, x1 = 0.1875",5.059 ± 0.037 mPa·s
same,viscosity,"313.15 K, 101.33 kPa, x1 = 0.2926",4.058 ± 0.03 mPa·s
same,viscosity,"313.15 K, 101.33 kPa, x1 = 0.4082",3.072 ± 0.023 mPa·s
same,viscosity,"313.15 K, 101.33 kPa, x1 = 0.4885",2.462 ± 0.018 mPa·s
same,viscosity,"313.15 K, 101.33 kPa, x1 = 0.5888",1.813 ± 0.014 mPa·s
same,viscosity,"313.15 K, 101.33 kPa, x1 = 0.7198",1.151 ± 0.0091 mPa·s
same,viscosity,"313.15 K, 101.33 kPa, x1 = 0.8119",0.8181 ± 0.0067 mPa·s
same,viscosity,"313.15 K, 101.33 kPa, x1 = 0.9029",0.5744 ± 0.005 mPa·s
CCCCN + CCCCCCCCO,viscosity,"303.15 K, 101.33 kPa, x1 = 0.094",5.27 ± 0.038 mPa·s
same,viscosity,"303.15 K, 101.33 kPa, x1 = 0.1",5.075 ± 0.044 mPa·s
same,viscosity,"303.15 K, 101.33 kPa, x1 = 0.1949",4.391 ± 0.032 mPa·s
same,viscosity,"303.15 K, 101.33 kPa, x1 = 0.2011",4.061 ± 0.036 mPa·s
same,viscosity,"303.15 K, 101.33 kPa, x1 = 0.288",3.626 ± 0.027 mPa·s
same,viscosity,"303.15 K, 101.33 kPa, x1 = 0.3",3.239 ± 0.029 mPa·s
same,viscosity,[1],2.547 ± 0.023 mPa·s
same,viscosity,"303.15 K, 101.33 kPa, x1 = 0.4199",2.665 ± 0.02 mPa·s
same,viscosity,"303.15 K, 101.33 kPa, x1 = 0.5003",1.995 ± 0.018 mPa·s
same,viscosity,"303.15 K, 101.33 kPa, x1 = 0.5164",2.065 ± 0.016 mPa·s
same,viscosity,"303.15 K, 101.33 kPa, x1 = 0.6002",1.528 ± 0.014 mPa·s
same,viscosity,"303.15 K, 101.33 kPa, x1 = 0.619",1.523 ± 0.012 mPa·s
same,viscosity,"303.15 K, 101.33 kPa, x1 = 0.7003",1.141 ± 0.011 mPa·s
same,viscosity,"303.15 K, 101.33 kPa, x1 = 0.7192",1.103 ± 0.0088 mPa·s
same,viscosity,"303.15 K, 101.33 kPa, x1 = 0.7998",0.847 ± 0.008 mPa·s
same,viscosity,"303.15 K, 101.33 kPa, x1 = 0.8084",0.8208 ± 0.0068 mPa·s
same,viscosity,"303.15 K, 101.33 kPa, x1 = 0.9",0.623 ± 0.006 mPa·s
same,viscosity,"303.15 K, 101.33 kPa, x1 = 0.9064",0.5902 ± 0.0051 mPa·s
same,viscosity,"313.15 K, 101.33 kPa, x1 = 0.094",3.765 ± 0.028 mPa·s
same,viscosity,"313.15 K, 101.33 kPa, x1 = 0.1",3.779 ± 0.033 mPa·s
same,viscosity,"313.15 K, 101.33 kPa, x1 = 0.1949",3.129 ± 0.024 mPa·s
same,viscosity,"313.15 K, 101.33 kPa, x1 = 0.2011",3.065 ± 0.027 mPa·s
same,viscosity,"313.15 K, 101.33 kPa, x1 = 0.288",2.585 ± 0.019 mPa·s
same,viscosity,"313.15 K, 101.33 kPa, x1 = 0.3",2.487 ± 0.022 mPa·s
same,viscosity,"313.15 K, 101.33 kPa, x1 = 0.4015",1.984 ± 0.018 mPa·s
same,viscosity,"313.15 K, 101.33 kPa, x1 = 0.4199",1.929 ± 0.015 mPa·s
same,viscosity,"313.15 K, 101.33 kPa, x1 = 0.5003",1.59 ± 0.015 mPa·s
same,viscosity,"313.15 K, 101.33 kPa, x1 = 0.5164",1.521 ± 0.012 mPa·s
same,viscosity,"313.15 K, 101.33 kPa, x1 = 0.6002",1.235 ± 0.011 mPa·s
same,viscosity,"313.15 K, 101.33 kPa, x1 = 0.619",1.154 ± 0.0092 mPa·s
same,viscosity,"313.15 K, 101.33 kPa, x1 = 0.7003",0.945 ± 0.009 mPa·s
same,viscosity,"313.15 K, 101.33 kPa, x1 = 0.7192",0.8639 ± 0.0071 mPa·s
same,viscosity,"313.15 K, 101.33 kPa, x1 = 0.7998",0.716 ± 0.007 mPa·s
same,viscosity,"313.15 K, 101.33 kPa, x1 = 0.8084",0.6658 ± 0.0057 mPa·s
same,viscosity,"313.15 K, 101.33 kPa, x1 = 0.9",0.537 ± 0.005 mPa·s
same,viscosity,"313.15 K, 101.33 kPa, x1 = 0.9064",0.5049 ± 0.0045 mPa·s
same,viscosity,"323.15 K, 101.33 kPa, x1 = 0.1",2.828 ± 0.025 mPa·s
same,viscosity,"323.15 K, 101.33 kPa, x1 = 0.2011",2.358 ± 0.013 mPa·s
same,viscosity,"323.15 K, 101.33 kPa, x1 = 0.3",1.942 ± 0.018 mPa·s
same,viscosity,"323.15 K, 101.33 kPa, x1 = 0.4015",1.576 ± 0.014 mPa·s
same,viscosity,"323.15 K, 101.33 kPa, x1 = 0.5003",1.289 ± 0.012 mPa·s
same,viscosity,"323.15 K, 101.33 kPa, x1 = 0.6002",1.021 ± 0.01 mPa·s
same,viscosity,"323.15 K, 101.33 kPa, x1 = 0.7003",0.791 ± 0.008 mPa·s
same,viscosity,"323.15 K, 101.33 kPa, x1 = 0.7998",0.614 ± 0.006 mPa·s
same,viscosity,"323.15 K, 101.33 kPa, x1 = 0.9",0.466 ± 0.005 mPa·s
